This is an account of results in paper PMC4768790 (The New phytologist, 2015).

For assay [1], the target named is HopZ1a (Pseudomonas syringae, UniProt Q6VE93). The experiment in a line: in vitro autoacetylation assay, […] autoradiography. Format: biochemical. Particulars: 100 nM IP6, [14C]-acetyl-CoA, 50 mM HEPES pH 8.0, 30°C, 1 h; activator.
In assay [2] the target is PopP2 (Ralstonia pseudosolanacearum, UniProt Q8Y125). As to conditions: labelled compound; 50 mM HEPES pH 8.0, 30°C, 1 h.
PopP2, sequence (Q8Y125 1-488): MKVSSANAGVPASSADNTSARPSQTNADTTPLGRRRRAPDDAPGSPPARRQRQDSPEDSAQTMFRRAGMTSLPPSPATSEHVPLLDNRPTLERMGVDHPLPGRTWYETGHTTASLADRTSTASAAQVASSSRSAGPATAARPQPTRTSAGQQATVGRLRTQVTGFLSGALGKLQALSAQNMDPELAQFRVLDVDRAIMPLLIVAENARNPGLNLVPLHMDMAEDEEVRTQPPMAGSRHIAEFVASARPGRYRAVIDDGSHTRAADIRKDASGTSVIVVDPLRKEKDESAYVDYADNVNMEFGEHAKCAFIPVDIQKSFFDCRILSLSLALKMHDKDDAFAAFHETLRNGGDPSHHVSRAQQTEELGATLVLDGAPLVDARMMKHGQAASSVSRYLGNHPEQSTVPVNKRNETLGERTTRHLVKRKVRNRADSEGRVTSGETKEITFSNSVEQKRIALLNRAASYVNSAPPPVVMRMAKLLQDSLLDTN

HopZ1a, sequence (Q6VE93 whole entry): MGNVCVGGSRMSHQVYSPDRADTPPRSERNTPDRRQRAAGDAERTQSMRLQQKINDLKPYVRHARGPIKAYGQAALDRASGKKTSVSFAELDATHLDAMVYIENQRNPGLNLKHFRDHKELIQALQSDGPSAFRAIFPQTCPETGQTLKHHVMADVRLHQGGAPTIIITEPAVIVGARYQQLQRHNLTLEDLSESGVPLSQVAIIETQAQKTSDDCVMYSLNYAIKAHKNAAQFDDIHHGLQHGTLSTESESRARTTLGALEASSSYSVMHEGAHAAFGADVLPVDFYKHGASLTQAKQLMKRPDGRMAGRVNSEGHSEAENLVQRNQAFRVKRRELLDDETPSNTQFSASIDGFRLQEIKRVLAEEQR

Consider `O=P(O)(O)O[C@H]1[C@H](OP(=O)(O)O)[C@@H](OP(=O)(O)O)[C@H](OP(=O)(O)O)[C@@H](OP(=O)(O)O)[C@H]1OP(=O)(O)O` [IP6], for which the “enhancement of autoacetylation by IP6” value in assay [1] is “c. 40”.

Take `CC(=O)SCCNC(=O)CCNC(=O)[C@H](O)C(C)(C)COP(=O)(O)OP(=O)(O)OC[C@H]1O[C@@H](n2cnc3c(N)ncnc32)[C@H](O)[C@@H]1OP(=O)(O)O` [acetyl-CoA]: the “in vitro autoacetylation assay, 14C autoradiography” value in assay [2] is reported as “the mutant PopP2(S447AS449A) is no longer autoacetylated”.
